Results taken from patent publication US12091426B2, “Bifunctional degraders of hematopoietic progenitor kinase and therapeutic uses thereof” (Nurix Therapeutics, Inc., priority 2021, dated 2024).

Biological target: T1, HPK1 (Homo sapiens, UniProt Q92918)
T1 construct: A HiBiT tag was introduced by CRISPR on the N terminus of HPK1 in Jurkat cells; host or cells: Jurkat cells (ATCC TIB-152), monoclonal line with CRISPR knock-in of HiBiT at the endogenous HPK1 locus
Assay: HPK1 Cellular HiBit Degradation Assay
Format: cell-based
Details: HiBiT HPK1 Jurkat cells, 24 hrs; for DC50: concentration at which 50% of HPK1 was remaining, read-out: DC50 Category; for Dmax: Jurkat, read-out: Dmax Category
How it was run: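 Jurkat cells with CRISPR knock-in N-terminal HiBiT-HPK1 were treated with CTMs (11-point, 3.16-fold, 10 uM to 0.1 nM final) for 24 hrs at 37° C. HiBiT lytic luminescence, with parental Jurkat as background and DMSO as 100%, gave % HPK1 remaining; four-parameter fit yielded DC50 and Dmax (100 minus lowest % remaining).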

[1] = maximum degradation vs DMSO vehicle control

T1 sequence (Q92918 whole entry): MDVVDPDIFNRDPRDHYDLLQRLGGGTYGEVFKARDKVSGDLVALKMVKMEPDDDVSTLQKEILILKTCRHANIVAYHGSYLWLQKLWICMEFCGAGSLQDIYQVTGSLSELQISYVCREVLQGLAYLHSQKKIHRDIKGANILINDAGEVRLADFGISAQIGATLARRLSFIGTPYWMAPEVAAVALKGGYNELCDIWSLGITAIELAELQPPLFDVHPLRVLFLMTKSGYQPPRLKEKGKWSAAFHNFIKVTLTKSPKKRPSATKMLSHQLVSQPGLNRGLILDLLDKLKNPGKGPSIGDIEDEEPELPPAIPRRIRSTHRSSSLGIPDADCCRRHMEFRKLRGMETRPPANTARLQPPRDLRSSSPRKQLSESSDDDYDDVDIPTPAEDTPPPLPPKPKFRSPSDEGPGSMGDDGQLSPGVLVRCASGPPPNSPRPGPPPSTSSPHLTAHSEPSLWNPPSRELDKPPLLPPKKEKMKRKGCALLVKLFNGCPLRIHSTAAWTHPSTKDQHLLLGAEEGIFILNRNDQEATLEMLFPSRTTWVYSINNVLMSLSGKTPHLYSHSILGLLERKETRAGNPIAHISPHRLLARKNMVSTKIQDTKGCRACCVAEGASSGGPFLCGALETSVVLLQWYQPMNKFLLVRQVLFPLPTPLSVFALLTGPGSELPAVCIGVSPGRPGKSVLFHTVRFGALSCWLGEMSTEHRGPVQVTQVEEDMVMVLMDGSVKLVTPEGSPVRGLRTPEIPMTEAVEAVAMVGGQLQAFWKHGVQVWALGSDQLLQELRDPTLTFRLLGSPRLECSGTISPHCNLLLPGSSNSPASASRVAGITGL

Row | SMILES | DC50 [nM] | Dmax [1] [%] | Dmax Category [1]
1 | CC(C)n1cnc2cc(-c3ccc4c(c3)N([C@H]3C[C@@H](N5CCCCC5)C3)C(=O)C43CCN(C(=O)C4CCN(C(=O)C5CCN(c6ncc(C7CCC(=O)NC7=O)cn6)CC5)CC4)CC3)nc(NC3CC3)c21 (mixture of isomers) [Example 89, (3RS)-3-(2-{4-[4-({6-[4-(cyclopropylamino)-3-(propan-2-yl)-3H-imidazo[4,5-c]pyridin-6-yl]-2-oxo-1-[(1S,3S)-3-(piperidin-1-yl)cyclobutyl]-1,2-dihydrospiro[indole-3,4′-piperidin]-1′-yl}carbonyl)piperidine-1-carbonyl]piperidin-1-yl}pyrimidin-5-yl)piperidine-2,6-dione] | 100 to 500 | 50 to 70 | –
2 | CC(C)n1cnc2cc(-c3ccc4c(c3)N([C@H]3C[C@@H](N5CCCCC5)C3)C(=O)C43CCN(C(=O)[C@@H]4CCN(C(=O)C5CCN(c6ccc(C7CCC(=O)NC7=O)cc6)CC5)C4)CC3)nc(NC3CC3)c21 (mixture of isomers) [Example 232, (3RS)-3-(4-{4-[(3R)-3-({6-[4-(cyclopropylamino)-3-(propan-2-yl)-3H-imidazo[4,5-c]pyridin-6-yl]-2-oxo-1-[(1S,3S)-3-(piperidin-1-yl)cyclobutyl]-1,2-dihydrospiro[indole-3,4′-piperidin]-1′-yl}carbonyl)pyrrolidine-1-carbonyl]piperidin-1-yl}phenyl)piperidine-2,6-dione] | < 100 | 70 to 85 | –
3 | CC(C)n1cnc2cc(-c3ccc4c(c3)N([C@H]3C[C@@H](N5CCCCC5)C3)C(=O)C43CCN(C(=O)C4CCN(C(=O)[C@H]5CC[C@H](N(C)c6ccc(C7CCC(=O)NC7=O)cn6)CC5)CC4)CC3)nc(Nc3ccccc3F)c21 (mixture of isomers) [Example 131, (3RS)-3-(6-{methyl[(1R,4R)-4-{4-[(6-{4-[(2-fluorophenyl)amino]-3-(propan-2-yl)-3H-imidazo[4,5-c]pyridin-6-yl}-2-oxo-1-[(1S,3S)-3-(piperidin-1-yl)cyclobutyl]-1,2-dihydrospiro[indole-3,4′-piperidin]-1′-yl)carbonyl]piperidine-1-carbonyl}cyclohexyl]amino}pyridin-3-yl)piperidine-2,6-dione] | < 100 | 70 to 85 | –
4 | CC(C)n1cnc2cc(-c3ccc4c(c3)N([C@H]3C[C@@H](N5CCCCC5)C3)C(=O)C43CCN(C(=O)C4(C)CCN(C(=O)C5CCN(c6ncc(C7CCC(=O)NC7=O)cn6)CC5)CC4)CC3)nc(NC3CC3)c21 (mixture of isomers) [Example 220, (3RS)-3-(2-{4-[4-({6-[4-(cyclopropylamino)-3-(propan-2-yl)-3H-imidazo[4,5-c]pyridin-6-yl]-2-oxo-1-[(1S,3S)-3-(piperidin-1-yl)cyclobutyl]-1,2-dihydrospiro[indole-3,4′-piperidin]-1′-yl}carbonyl)-4-methylpiperidine-1-carbonyl]piperidin-1-yl}pyrimidin-5-yl)piperidine-2,6-dione] | < 100 | 70 to 85 | –
5 | Cc1nc(N2CCC(C(=O)N3CCC(C)(C(=O)N4CCC5(CC4)C(=O)N([C@H]4C[C@@H](N6CCCCC6)C4)c4cc(-c6cc7ncn(C(C)C)c7c(Nc7ccccc7F)n6)ccc45)CC3)CC2)ccc1C1CCC(=O)NC1=O (mixture of isomers) [Example 157, (3RS)-3-[6-(4-{4-[(6-{4-[(2-fluorophenyl)amino]-3-(propan-2-yl)-3H-imidazo[4,5-c]pyridin-6-yl}-2-oxo-1-[(1S,3S)-3-(piperidin-1-yl)cyclobutyl]-1,2-dihydrospiro[indole-3,4′-piperidin]-1′-yl)carbonyl]-4-methylpiperidine-1-carbonyl}piperidin-1-yl)-2-Methylpyridin-3-yl]piperidine-2,6-dione] | 100 to 500 | 70 to 85 | –
6 | CC(C)n1cnc2cc(-c3ccc4c(c3)N([C@H]3C[C@@H](N5CCCCC5)C3)C(=O)C43CCN(C(=O)C45CCC(C)(C4)N(C(=O)C4CCN(c6ccc(C7CCC(=O)NC7=O)cn6)CC4)C5)CC3)nc(NC3CC3)c21 (mixture of isomers) [Example 251, (3RS)-3-(6-{4-[4-({6-[4-(cyclopropylamino)-3-(propan-2-yl)-3H-imidazo[4,5-c]pyridin-6-yl]-2-oxo-1-[(1S,3S)-3-(piperidin-1-yl)cyclobutyl]-1,2-dihydrospiro[indole-3,4′-piperidin]-1′-yl}carbonyl)-1-methyl-2-azabicyclo[2.2.1]heptane-2-carbonyl]piperidin-1-yl}pyridin-3-yl)piperidine-2,6-dione] | < 100 | 50 to 70 | –
7 | CC(C)n1cnc2cc(-c3ccc4c(c3)N([C@H]3C[C@@H](N5CCCCC5)C3)C(=O)C43CCN(C(=O)C4(C)CCN(C(=O)C5CCN(c6ccc(C7CCC(=O)NC7=O)c(F)c6)CC5)CC4)CC3)nc(NC3CC3)c21 (mixture of isomers) [Example 210, (3RS)-3-(4-{4-[4-({6-[4-(cyclopropylamino)-3-(propan-2-yl)-3H-imidazo[4,5-c]pyridin-6-yl]-2-oxo-1-[(1S,3S)-3-(piperidin-1-yl)cyclobutyl]-1,2-dihydrospiro[indole-3,4′-piperidin]-1′-yl}carbonyl)-4-methylpiperidine-1-carbonyl]piperidin-1-yl}-2-Fluorophenyl)piperidine-2,6-dione] | < 100 | 70 to 85 | –
8 | CC(C)n1cnc2cc(-c3ccc4c(c3)N([C@H]3C[C@@H](N5CCCCC5)C3)C(=O)C43CCN(C(=O)C4CCN(S(=O)(=O)C5CCN(c6ccc(C7CCC(=O)NC7=O)cn6)CC5)CC4)CC3)nc(NC3CC3)c21 (mixture of isomers) [Example 160, (3RS)-3-[6-(4-{[4-({6-[4-(cyclopropylamino)-3-(propan-2-yl)-3H-imidazo[4,5-c]pyridin-6-yl]-2-oxo-1-[(1S,3S)-3-(piperidin-1-yl)cyclobutyl]-1,2-dihydrospiro[indole-3,4′-piperidin]-1′-yl}carbonyl)piperidin-1-yl]sulfonyl}piperidin-1-yl)pyridin-3-yl]piperidine-2,6-dione] | < 100 | > 85 | –
9 | CC(C)n1cnc2cc(-c3ccc4c(c3)N([C@H]3C[C@@H](N5CCCCC5)C3)C(=O)C43CCN(C(=O)[C@H]4CC[C@H](C(=O)N5CCC(N(C)c6ccc(C7CCC(=O)NC7=O)cn6)CC5)CC4)CC3)nc(Nc3ccncc3F)c21 (mixture of isomers) [Example 139, (3RS)-3-{6-[methyl({1-[(1R,4R)-4-[(6-{4-[(3-Fluoropyridin-4-yl)amino]-3-(propan-2-yl)-3H-imidazo[4,5-c]pyridin-6-yl}-2-oxo-1-[(1S,3S)-3-(piperidin-1-yl)cyclobutyl]-1,2-dihydrospiro[indole-3,4′-piperidin]-1′-yl)carbonyl]cyclohexanecarbonyl]piperidin-4-yl})amino]pyridin-3-yl}piperidine-2,6-dione] | < 100 | 70 to 85 | –

The remaining lines, values ahead:

Row | DC50 [nM] | Dmax [1] [%] | Dmax Category [1] | SMILES
10 | 100 to 500 | 70 to 85 | – | CC(C)n1cnc2cc(-c3ccc4c(c3)N([C@H]3C[C@@H](N5CCCCC5)C3)C(=O)C43CCN(C(=O)C4(C)CCN(C(=O)C5CCN(c6ccc7c(c6)C(=O)N(C6CCC(=O)NC6=O)C7=O)CC5)CC4)CC3)nc(Nc3ccccc3F)c21 (stereo partly drawn) [Example 122, 2-(2,6-dioxopiperidin-3-yl)-5-(4-{4-[(6-{4-[(2-fluorophenyl)amino]-3-(propan-2-yl)-3H-imidazo[4,5-c]pyridin-6-yl}-2-oxo-1-[(1S,3S)-3-(piperidin-1-yl)cyclobutyl]-1,2-dihydrospiro[indole-3,4′-piperidin]-1′-yl)carbonyl]-4-methylpiperidine-1-carbonyl}piperidin-1-yl)-2,3-dihydro-1H-isoindole-1,3-dione]
11 | 100 to 500 | 70 to 85 | – | CC(C)n1cnc2cc(-c3ccc4c(c3)N([C@H]3C[C@@H](N5CCCCC5)C3)C(=O)C43CCN(C(=O)[C@H]4CC[C@@H](C(=O)N5CCN(c6ccc7c(c6)C(=O)N(C6CCC(=O)NC6=O)C7=O)CC5)CC4)CC3)nc(Nc3ccccc3F)c21 (mixture of isomers) [Example 31, 2-[(3RS)-2,6-dioxopiperidin-3-yl]-5-{4-[(1S,4s)-4-[(6-{4-[(2-fluorophenyl)amino]-3-(propan-2-yl)-3H-imidazo[4,5-c]pyridin-6-yl}-2-oxo-1-[(1S,3S)-3-(piperidin-1-yl)cyclobutyl]-1,2-dihydrospiro[indole-3,4′-piperidin]-1′-yl)carbonyl]cyclohexanecarbonyl]piperazin-1-yl}-2,3-dihydro-1H-isoindole-1,3-dione]
12 | 500 to 1000 | – | B (B: >70%-<85%) | CC(C)n1cnc2cc(-c3ccc4c(c3)N([C@H]3C[C@@H](N5CCCCC5)C3)C(=O)C43CCN(C(=O)c4ccc(C(=O)NC5CCN(c6ccc7c(c6)C(=O)N(C6CCC(=O)NC6=O)C7=O)CC5)cc4)CC3)nc(NC3CC3)c21 (mixture of isomers) [Example 44]
13 | 500 to 1000 | 50 to 70 | – | CC(C)n1cnc2cc(-c3ccc4c(c3)N([C@H]3C[C@@H](N5CCCCC5)C3)C(=O)C43CCN(C(=O)C4CCN(C(=O)[C@H]5CC[C@H](Nc6cccc7c6C(=O)N(C6CCC(=O)NC6=O)C7=O)CC5)CC4)CC3)nc(NC3CC3)c21 (mixture of isomers) [Example 56, 2-[(3RS)-2,6-dioxopiperidin-3-yl]-4-{[(1R,4R)-4-[4-({6-[4-(cyclopropylamino)-3-(propan-2-yl)-3H-imidazo[4,5-c]pyridin-6-yl]-2-oxo-1-[(1S,3S)-3-(piperidin-1-yl)cyclobutyl]-1,2-dihydrospiro[indole-3,4′-piperidin]-1′-yl}carbonyl)piperidine-1-carbonyl]cyclohexyl]amino}-2,3-dihydro-1H-isoindole-1,3-dione]
